Experiments:
[1] = DRUGMATRIX: Imidazoline I2, Central radioligand binding (ligand: [3H] Idazoxan); assay type: cell membranes, Rattus norvegicus, Wistar, Cerebral cortex, Membrane; settings: Not Active = under 50% inhibition at 10 µM
[2] = DRUGMATRIX: Sigma2 radioligand binding (ligand: [3H] Ifenprodil); assay type: cell membranes, Rattus norvegicus, Wistar, Brain, Membrane; settings: Not Active = under 50% inhibition at 10 µM
[3] = DRUGMATRIX: Platelet-Derived Growth Factor (PDGF) radioligand binding (ligand: [125I] PDGF); assay type: cell-based; settings: nih3t3; Not Active = under 50% inhibition at 10 µM
[4] = target: T1, Polyunsaturated fatty acid lipoxygenase ALOX15 (Oryctolagus cuniculus, UniProt P12530); assay: biochemical; assay type: tissue-based, Reticulocytes; settings: reticulocytes;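 further: inhibition of 15-lipoxygenase enzyme activity measured with linoleic acid as the substrate; in other assays of this panel Not Active means under 50% inhibition at 10 µM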
T1 sequence (P12530 whole entry): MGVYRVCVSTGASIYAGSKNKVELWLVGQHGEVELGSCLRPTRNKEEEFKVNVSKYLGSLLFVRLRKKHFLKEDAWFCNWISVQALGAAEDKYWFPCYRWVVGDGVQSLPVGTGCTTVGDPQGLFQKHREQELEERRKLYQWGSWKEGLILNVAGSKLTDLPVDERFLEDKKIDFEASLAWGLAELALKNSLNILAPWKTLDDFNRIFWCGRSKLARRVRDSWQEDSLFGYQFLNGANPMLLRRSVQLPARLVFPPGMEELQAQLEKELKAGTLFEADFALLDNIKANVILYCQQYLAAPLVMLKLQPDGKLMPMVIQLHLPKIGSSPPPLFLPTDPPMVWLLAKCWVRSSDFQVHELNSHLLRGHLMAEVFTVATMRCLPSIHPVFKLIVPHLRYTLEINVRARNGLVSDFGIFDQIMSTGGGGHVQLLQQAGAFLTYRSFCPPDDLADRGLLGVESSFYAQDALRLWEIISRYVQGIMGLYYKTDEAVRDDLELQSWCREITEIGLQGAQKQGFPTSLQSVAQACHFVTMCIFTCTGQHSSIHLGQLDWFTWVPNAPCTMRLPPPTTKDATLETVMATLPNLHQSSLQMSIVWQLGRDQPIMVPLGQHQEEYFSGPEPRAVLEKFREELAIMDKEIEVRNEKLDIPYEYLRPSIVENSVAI

[5] = DRUGMATRIX: Glutamate, NMDA, Phencyclidine radioligand binding (ligand: [3H] TCP); assay type: cell membranes, Rattus norvegicus, Wistar, Cerebral cortex, Membrane; settings: Not Active = under 50% inhibition at 10 µM
Carbonic anhydrase 2 = Carbonic anhydrase 2 (Homo sapiens, UniProt P00918); assay: DRUGMATRIX: Carbonic Anhydrase II enzyme inhibition (substrate: 4-Nitrophenyl acetate (4-NPA)); assay type: tissue-based, Erythrocyte; settings: erythrocyte; Not Active = under 50% inhibition at 10 µM

CC(O)C(=O)O (stereo not given) [LACTIC ACID]
Not Active: IC50 [1] | Ki [1] | IC50 [2] | Ki [2] | IC50 [3] | Ki [3] | IC50 [4] | IC50 [5] | Ki [5] | IC50 (Carbonic anhydrase 2)

Source: ChEMBL document CHEMBL1909046, “DrugMatrix in vitro pharmacology data”
